{"source": "patent US6355799B1", "about": "“Substituted benzene compounds, process for their preparation, and herbicidal and defoliant compositions containing them” (ISK Americas Incorporated, priority 1997, dated 2002)", "assay_type_in_all_cases": "in vivo", "key": {"[1]": {"system": "sicklepod (Cassia obtusifolia, CASOB)", "experiment": "Post-emerge test, greenhouse herbicide activity screening", "conditions": "post-emerge, 14 days after application, rating scale 0-100", "how_it_was_run": "(§1)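 Fourteen days after spraying, crop and weed injury was graded visually from 0, no effect, to 100, every plant dead. Test substances were dissolved in acetone and applied at 15–1000 g ai/ha with a flat-fan nozzle. Application was either pre-emergence, one day after sowing, or post-emergence at the 2–3 leaf stage.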"}, "[2]": {"system": "lambsquarters (Chenopodium album, CHEAL)", "experiment": "Post-emerge test, greenhouse herbicide activity screening", "conditions": "post-emerge, 14 days after application, rating scale 0-100", "how_it_was_run": "as §1"}, "[3]": {"system": "redroot pigweed (Amaranthus retroflexus, AMARE)", "experiment": "Post-emerge test, greenhouse herbicide activity screening", "conditions": "post-emerge, 14 days after application, rating scale 0-100", "how_it_was_run": "as §1"}, "[4]": {"system": "ivyleaf morningglory (Ipomoea hederacea, IPOHE)", "experiment": "Post-emerge test, greenhouse herbicide activity screening", "conditions": "post-emerge, 14 days after application, rating scale 0-100", "how_it_was_run": "as §1"}, "[5]": {"system": "large crabgrass (Digitaria sanguinalis, DIGSA)", "experiment": "Post-emerge test, greenhouse herbicide activity screening", "conditions": "post-emerge, 14 days after application, rating scale 0-100", "how_it_was_run": "as §1"}, "[6]": {"system": "barnyardgrass (Echinochloa crus-galli, ECHCG)", "experiment": "Post-emerge test, greenhouse herbicide activity screening", "conditions": "post-emerge, 14 days after application, rating scale 0-100", "how_it_was_run": "as §1"}, "[7]": {"system": "velvetleaf (Abutilon theophrasti, ABUTH)", "experiment": "Post-emerge test, greenhouse herbicide activity screening", "conditions": "post-emerge, 14 days after application, rating scale 0-100", "how_it_was_run": "as §1"}, "[8]": {"system": "green foxtail (Setaria viridis, SETVI)", "experiment": "Post-emerge test, greenhouse herbicide activity screening", "conditions": "post-emerge, 14 days after application, rating scale 0-100", "how_it_was_run": "as §1"}, "[9]": {"system": "johnsongrass (Sorghum halepense, SORHA)", "experiment": "Post-emerge test, greenhouse herbicide activity screening", "conditions": "post-emerge, 14 days after application, rating scale 0-100", "how_it_was_run": "as §1"}, "[10]": {"system": "field corn (Zea mays L., var. Dekalb 535, CORN)", "experiment": "Post-emerge test, crop safety", "conditions": "post-emerge, 14 days after application, rating scale 0-100", "how_it_was_run": "(§2)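 Compounds in acetone were track-sprayed at 15-1000 g ai/ha (187 l/ha) on sandy loam pots: pre-emerge one day after seeding, post-emerge at 2-3 leaf stage with 0.25% v/v non-ionic surfactant. Phytotoxicity was rated 14 days later on a 0 (no damage) to 100 (complete death) scale.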"}, "[11]": {"system": "upland rice (Oryza sp., var. Tebonnet, RICE)", "experiment": "Post-emerge test, crop safety", "conditions": "post-emerge, 14 days after application, rating scale 0-100", "how_it_was_run": "as §2"}, "[12]": {"system": "redroot pigweed (Amaranthus retroflexus, AMARE)", "experiment": "Pre-emerge test, greenhouse herbicide activity screening", "conditions": "rated 14 days after application, 0 = no damage, 100 = complete death", "how_it_was_run": "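Plants grown in 10 cm pots of sandy loam mix received acetone-dissolved compounds through a moving flat-fan nozzle. Doses ranged from 15 to 1000 g ai/ha. Pre-emerge pots were seeded one day earlier, post-emerge pots 8–21 days earlier. Fourteen days on, each pot was graded 0–100 for damage.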"}, "[13]": {"system": "field corn (Zea mays L., var. Dekalb 535, CORN)", "experiment": "Pre-emerge test, crop safety", "conditions": "rated 14 days after application, 0 = no damage, 100 = complete death", "how_it_was_run": "(§3)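 Rating: 0–100 visual injury, 14 DAA. Application: acetone, 187 l/ha, 15–1000 g ai/ha, flat-fan track sprayer with nozzle 40–45 cm above soil or canopy. Post-emerge runs used 0.25% v/v surfactant on 2–3 leaf plants.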"}, "[14]": {"system": "upland rice (Oryza sp., var. Tebonnet, RICE)", "experiment": "Pre-emerge test, crop safety", "conditions": "rated 14 days after application, 0 = no damage, 100 = complete death", "how_it_was_run": "as §3"}, "[15]": {"system": "sicklepod (Cassia obtusifolia, CASOB)", "experiment": "Pre-emerge test, greenhouse herbicide activity screening", "conditions": "rated 14 days after application, 0 = no damage, 100 = complete death", "how_it_was_run": "as §2"}, "[16]": {"system": "lambsquarters (Chenopodium album, CHEAL)", "experiment": "Pre-emerge test, greenhouse herbicide activity screening", "conditions": "rated 14 days after application, 0 = no damage, 100 = complete death", "how_it_was_run": "as §2"}, "[17]": {"system": "ivyleaf morningglory (Ipomoea hederacea, IPOHE)", "experiment": "Pre-emerge test, greenhouse herbicide activity screening", "conditions": "rated 14 days after application, 0 = no damage, 100 = complete death", "how_it_was_run": "as §2"}, "[18]": {"system": "large crabgrass (Digitaria sanguinalis, DIGSA)", "experiment": "Pre-emerge test, greenhouse herbicide activity screening", "conditions": "rated 14 days after application, 0 = no damage, 100 = complete death", "how_it_was_run": "as §2"}, "[19]": {"system": "barnyardgrass (Echinochloa crus-galli, ECHCG)", "experiment": "Pre-emerge test, greenhouse herbicide activity screening", "conditions": "rated 14 days after application, 0 = no damage, 100 = complete death", "how_it_was_run": "as §2"}, "[20]": {"system": "velvetleaf (Abutilon theophrasti, ABUTH)", "experiment": "Pre-emerge test, greenhouse herbicide activity screening", "conditions": "rated 14 days after application, 0 = no damage, 100 = complete death", "how_it_was_run": "as §2"}, "[21]": {"system": "green foxtail (Setaria viridis, SETVI)", "experiment": "Pre-emerge test, greenhouse herbicide activity screening", "conditions": "rated 14 days after application, 0 = no damage, 100 = complete death", "how_it_was_run": "as §2"}, "[22]": {"system": "johnsongrass (Sorghum halepense, SORHA)", "experiment": "Pre-emerge test, greenhouse herbicide activity screening", "conditions": "rated 14 days after application, 0 = no damage, 100 = complete death", "how_it_was_run": "as §2"}}, "data": [{"smiles": "COc1c(Cl)cc(F)c(-n2c(=O)cc(C(F)(F)F)n(C)c2=O)c1NC(=O)COCc1ccccc1", "note": "[2-89]", "values": [{"measurement": "phytotoxicity rating CASOB", "setting": "[1]; 63 g ai/ha", "result": 50}, {"measurement": "phytotoxicity rating CASOB", "setting": "[1]; 250 g ai/ha", "result": 60}, {"measurement": "phytotoxicity rating CHEAL", "setting": "[2]; 63 g ai/ha", "result": 60}, {"measurement": "phytotoxicity rating CHEAL", "setting": "[2]; 250 g ai/ha", "result": 90}, {"measurement": "phytotoxicity rating AMARE", "setting": "[3]; 63 g ai/ha", "result": 70}, {"measurement": "phytotoxicity rating AMARE", "setting": "[3]; 250 g ai/ha", "result": 100}, {"measurement": "phytotoxicity rating IPOHE", "setting": "[4]; 63 g ai/ha", "result": 90}, {"measurement": "phytotoxicity rating IPOHE", "setting": "[4]; 250 g ai/ha", "result": 100}, {"measurement": "phytotoxicity rating DIGSA", "setting": "[5]; 63 g ai/ha", "result": 0}, {"measurement": "phytotoxicity rating DIGSA", "setting": "[5]; 250 g ai/ha", "result": 0}, {"measurement": "phytotoxicity rating ECHCG", "setting": "[6]; 63 g ai/ha", "result": 0}, {"measurement": "phytotoxicity rating ECHCG", "setting": "[6]; 250 g ai/ha", "result": 10}, {"measurement": "phytotoxicity rating ABUTH", "setting": "[7]; 63 g ai/ha", "result": 100}, {"measurement": "phytotoxicity rating ABUTH", "setting": "[7]; 250 g ai/ha", "result": 100}, {"measurement": "phytotoxicity rating SETVI", "setting": "[8]; 63 g ai/ha", "result": 20}, {"measurement": "phytotoxicity rating SETVI", "setting": "[8]; 250 g ai/ha", "result": 20}, {"measurement": "phytotoxicity rating SORHA", "setting": "[9]; 63 g ai/ha", "result": 0}, {"measurement": "phytotoxicity rating SORHA", "setting": "[9]; 250 g ai/ha", "result": 10}, {"measurement": "phytotoxicity rating CORN", "setting": "[10]; 63 g ai/ha", "result": 0}, {"measurement": "phytotoxicity rating CORN", "setting": "[10]; 250 g ai/ha", "result": 0}, {"measurement": "phytotoxicity rating RICE", "setting": "[11]; 63 g ai/ha", "result": 60}, {"measurement": "phytotoxicity rating RICE", "setting": "[11]; 250 g ai/ha", "result": 70}, {"measurement": "Pre-emerge Herbicidal Activity, phytotoxicity rating (0-100), AMARE", "setting": "[12]; 63 g ai/ha", "result": 100}, {"measurement": "Pre-emerge Herbicidal Activity, phytotoxicity rating (0-100), AMARE", "setting": "[12]; 250 g ai/ha", "result": 100}, {"measurement": "Pre-emerge phytotoxicity rating (0-100), crop damage, CORN", "setting": "[13]; 63 g ai/ha", "result": 10}, {"measurement": "Pre-emerge phytotoxicity rating (0-100), crop damage, CORN", "setting": "[13]; 250 g ai/ha", "result": 30}, {"measurement": "Pre-emerge phytotoxicity rating (0-100), crop damage, RICE", "setting": "[14]; 63 g ai/ha", "result": 40}, {"measurement": "Pre-emerge phytotoxicity rating (0-100), crop damage, RICE", "setting": "[14]; 250 g ai/ha", "result": 90}, {"measurement": "Pre-emerge Herbicidal Activity, phytotoxicity rating (0-100), CASOB", "setting": "[15]; 63 g ai/ha", "result": 95}, {"measurement": "Pre-emerge Herbicidal Activity, phytotoxicity rating (0-100), CASOB", "setting": "[15]; 250 g ai/ha", "result": 100}, {"measurement": "Pre-emerge Herbicidal Activity, phytotoxicity rating (0-100), CHEAL", "setting": "[16]; 63 g ai/ha", "result": 100}, {"measurement": "Pre-emerge Herbicidal Activity, phytotoxicity rating (0-100), CHEAL", "setting": "[16]; 250 g ai/ha", "result": 100}, {"measurement": "Pre-emerge Herbicidal Activity, phytotoxicity rating (0-100), IPOHE", "setting": "[17]; 63 g ai/ha", "result": 95}, {"measurement": "Pre-emerge Herbicidal Activity, phytotoxicity rating (0-100), IPOHE", "setting": "[17]; 250 g ai/ha", "result": 100}, {"measurement": "Pre-emerge Herbicidal Activity, phytotoxicity rating (0-100), DIGSA", "setting": "[18]; 63 g ai/ha", "result": 99}, {"measurement": "Pre-emerge Herbicidal Activity, phytotoxicity rating (0-100), DIGSA", "setting": "[18]; 250 g ai/ha", "result": 100}, {"measurement": "Pre-emerge Herbicidal Activity, phytotoxicity rating (0-100), ECHCG", "setting": "[19]; 63 g ai/ha", "result": 50}, {"measurement": "Pre-emerge Herbicidal Activity, phytotoxicity rating (0-100), ECHCG", "setting": "[19]; 250 g ai/ha", "result": 90}, {"measurement": "Pre-emerge Herbicidal Activity, phytotoxicity rating (0-100), ABUTH", "setting": "[20]; 63 g ai/ha", "result": 100}, {"measurement": "Pre-emerge Herbicidal Activity, phytotoxicity rating (0-100), ABUTH", "setting": "[20]; 250 g ai/ha", "result": 100}, {"measurement": "Pre-emerge Herbicidal Activity, phytotoxicity rating (0-100), SETVI", "setting": "[21]; 63 g ai/ha", "result": 100}, {"measurement": "Pre-emerge Herbicidal Activity, phytotoxicity rating (0-100), SETVI", "setting": "[21]; 250 g ai/ha", "result": 100}, {"measurement": "Pre-emerge Herbicidal Activity, phytotoxicity rating (0-100), SORHA", "setting": "[22]; 63 g ai/ha", "result": 60}, {"measurement": "Pre-emerge Herbicidal Activity, phytotoxicity rating (0-100), SORHA", "setting": "[22]; 250 g ai/ha", "result": 90}]}]}
